Patent US20110039721A1, “METHOD FOR PREDICTION ABOUT CARCINOGENICITY OF SUBSTANCE IN RODENT” (Chemicals Evaluation and Research Institute, priority 2007, published 2011)

Key:
[1] = tested on: mRNA expressed from the genes (A) to (D) in rat liver; assay: Behavior of genes (mRNA expression level, oligo-DNA microarray) in rat liver after 28-day oral administration; type: in vivo
Outline: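 Rat liver RNA after 28 days of daily gavage dosing (male F344, 5 weeks old, four per group). A change reaching 1.5-fold, or 1/1.5, against solvent control scores as significant; opposite direction versus another carcinogen scores as not significant.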

liver = details: in vivo; cited from earlier work
rodent = details: in vivo; cited from earlier work
[2] = (C), Unigene Rn.120914, defined direction +, rat liver, oral once daily 28 days

Structure (SMILES): c1ccc2ncccc2c1 [TS006, Quinoline]
- Behavior of gene caused by administration of chemical substance, Gene No. 4846 ([1]; (A), Unigene Rn.144554, defined direction +, rat liver, oral once daily 28 days): +
- Behavior of gene caused by administration of chemical substance, Gene No. 4218 ([1]; (A), Unigene Rn.167075, defined direction +, rat liver, oral once daily 28 days, significant = 1.5 times or more or 1/1.5 or less of control): −
- Behavior of gene caused by administration of chemical substance, Gene No. 2026 ([1]; (A), Unigene Rn.167075, defined direction −, rat liver, oral once daily 28 days): +
- Behavior of gene caused by administration of chemical substance, Gene No. 6182 ([1]; (A), Unigene Rn.5834, defined direction +, rat liver, oral once daily 28 days): −
- Behavior of gene caused by administration of chemical substance, Gene No. 5600 ([1]; (A), Unigene Rn.9836, defined direction +, rat liver, oral once daily 28 days): −
- Behavior of gene caused by administration of chemical substance, Gene No. 1494 ([1]; (B), Unigene Rn.1430, defined direction −, rat liver, oral once daily 28 days): +
- Behavior of gene caused by administration of chemical substance, Gene No. 2045 ([1]; (B), Unigene Rn.19329, defined direction +, rat liver, oral once daily 28 days): −
- Behavior of gene caused by administration of chemical substance, Gene No. 2203 ([1]; (B), Unigene Rn.21240, defined direction +, rat liver, oral once daily 28 days): −
- Behavior of gene caused by administration of chemical substance, Gene No. 533 ([1]; (C), Unigene Rn.106184, defined direction +, rat liver, oral once daily 28 days): −
- Behavior of gene caused by administration of chemical substance, Gene No. 725 ([1]; (C), Unigene Rn.108075, defined direction −, rat liver, oral once daily 28 days): −
- Behavior of gene caused by administration of chemical substance, Gene No. 1163 ([1]; (C), Unigene Rn.11766, defined direction +, rat liver, oral once daily 28 days): −
- Behavior of gene caused by administration of chemical substance, Gene No. 4973 ([1]; (C), Unigene Rn.118529, defined direction −, rat liver, oral once daily 28 days): −
- Behavior of gene caused by administration of chemical substance, Gene No. 4095 ([1]; (C), Unigene Rn.119024, defined direction −, rat liver, oral once daily 28 days): −
- Behavior of gene caused by administration of chemical substance, Gene No. 1334 [1, 2]: −
- Behavior of gene caused by administration of chemical substance, Gene No. 6620 [1, 2]: −
- Behavior of gene caused by administration of chemical substance, Gene No. 6303 ([1]; (C), Unigene Rn.123063, defined direction −, rat liver, oral once daily 28 days): −
- Behavior of gene caused by administration of chemical substance, Gene No. 5878 ([1]; (C), Unigene Rn.143213, defined direction −, rat liver, oral once daily 28 days): −
- Behavior of gene caused by administration of chemical substance, Gene No. 1131 ([1]; (C), Unigene Rn.144946, defined direction −, rat liver, oral once daily 28 days): −
- Behavior of gene caused by administration of chemical substance, Gene No. 1562 ([1]; (C), Unigene Rn.14744, defined direction −, rat liver, oral once daily 28 days): −
- Behavior of gene caused by administration of chemical substance, Gene No. 1741 ([1]; (C), Unigene Rn.1647, defined direction −, rat liver, oral once daily 28 days): −
- Behavior of gene caused by administration of chemical substance, Gene No. 893 ([1]; (C), Unigene Rn.164817, defined direction +, rat liver, oral once daily 28 days): −
- Behavior of gene caused by administration of chemical substance, Gene No. 6026 ([1]; (C), Unigene Rn.167685, defined direction −, rat liver, oral once daily 28 days): −
- Behavior of gene caused by administration of chemical substance, Gene No. 154 ([1]; (C), Unigene Rn.185941, defined direction −, rat liver, oral once daily 28 days): −
- Behavior of gene caused by administration of chemical substance, Gene No. 1993 ([1]; (C), Unigene Rn.18728, defined direction −, rat liver, oral once daily 28 days): −
- Behavior of gene caused by administration of chemical substance, Gene No. 813 ([1]; (C), Unigene Rn.201760, defined direction +, rat liver, oral once daily 28 days): +
- Behavior of gene caused by administration of chemical substance, Gene No. 2494 ([1]; (C), Unigene Rn.23969, defined direction +, rat liver, oral once daily 28 days): −
- Behavior of gene caused by administration of chemical substance, Gene No. 2546 ([1]; (C), Unigene Rn.24561, defined direction −, rat liver, oral once daily 28 days): −
- Behavior of gene caused by administration of chemical substance, Gene No. 3776 ([1]; (C), Unigene Rn.43232, defined direction −, rat liver, oral once daily 28 days): −
- Behavior of gene caused by administration of chemical substance, Gene No. 3929 ([1]; (C), Unigene Rn.4620, defined direction +, rat liver, oral once daily 28 days): −
- Behavior of gene caused by administration of chemical substance, Gene No. 1119 ([1]; (C), Unigene Rn.9757, defined direction +, rat liver, oral once daily 28 days): −
- Behavior of gene caused by administration of chemical substance, Gene No. 6742 ([1]; (C), Unigene Rn.9779, defined direction +, rat liver, oral once daily 28 days): −
- Behavior of gene caused by administration of chemical substance, Gene No. 5634 ([1]; (C), Unigene Rn.9862, defined direction −, rat liver, oral once daily 28 days): −
- Behavior of gene caused by administration of chemical substance, Gene No. 5726 ([1]; (D), Unigene Rn.9939, defined direction −, rat liver, oral once daily 28 days): −
- Liver carcinogenicity (liver): Cr+
- Carcinogenicity (rodent): C+

Structure (SMILES): Oc1cccc2cccnc12 [TS007, 8-Hydroxyquinoline]
- Behavior of gene caused by administration of chemical substance, Gene No. 154 ([1]; rat, in vivo): −
- Behavior of gene caused by administration of chemical substance, Gene No. 533 ([1]; rat, in vivo): −
- Behavior of gene caused by administration of chemical substance, Gene No. 725 ([1]; rat, in vivo): −
- Behavior of gene caused by administration of chemical substance, Gene No. 813 ([1]; rat, in vivo): −
- Behavior of gene caused by administration of chemical substance, Gene No. 893 ([1]; rat, in vivo): −
- Behavior of gene caused by administration of chemical substance, Gene No. 1119 ([1]; rat, in vivo): −
- Behavior of gene caused by administration of chemical substance, Gene No. 1131 ([1]; rat, in vivo): −
- Behavior of gene caused by administration of chemical substance, Gene No. 1163 ([1]; rat, in vivo): −
- Behavior of gene caused by administration of chemical substance, Gene No. 1334 ([1]; rat, in vivo): −
- Behavior of gene caused by administration of chemical substance, Gene No. 1494 ([1]; rat, in vivo): −
- Behavior of gene caused by administration of chemical substance, Gene No. 1562 ([1]; rat, in vivo): −
- Behavior of gene caused by administration of chemical substance, Gene No. 1741 ([1]; rat, in vivo): −
- Behavior of gene caused by administration of chemical substance, Gene No. 1993 ([1]; rat, in vivo): −
- Behavior of gene caused by administration of chemical substance, Gene No. 2026 ([1]; rat, in vivo): −
- Behavior of gene caused by administration of chemical substance, Gene No. 2045 ([1]; rat, in vivo): −
- Behavior of gene caused by administration of chemical substance, Gene No. 2203 ([1]; rat, in vivo): −
- Behavior of gene caused by administration of chemical substance, Gene No. 2494 ([1]; rat, in vivo): −
- Behavior of gene caused by administration of chemical substance, Gene No. 2546 ([1]; rat, in vivo): −
- Behavior of gene caused by administration of chemical substance, Gene No. 3776 ([1]; rat, in vivo): −
- Behavior of gene caused by administration of chemical substance, Gene No. 3929 ([1]; rat, in vivo): −
- Behavior of gene caused by administration of chemical substance, Gene No. 4095 ([1]; rat, in vivo): −
- Behavior of gene caused by administration of chemical substance, Gene No. 4218 ([1]; rat, in vivo): −
- Behavior of gene caused by administration of chemical substance, Gene No. 4846 ([1]; rat, in vivo): −
- Behavior of gene caused by administration of chemical substance, Gene No. 4973 ([1]; rat, in vivo): −
- Behavior of gene caused by administration of chemical substance, Gene No. 5600 ([1]; rat, in vivo): −
- Behavior of gene caused by administration of chemical substance, Gene No. 5634 ([1]; rat, in vivo): −
- Behavior of gene caused by administration of chemical substance, Gene No. 5726 ([1]; rat, in vivo): +
- Behavior of gene caused by administration of chemical substance, Gene No. 5878 ([1]; rat, in vivo): −
- Behavior of gene caused by administration of chemical substance, Gene No. 6026 ([1]; rat, in vivo): −
- Behavior of gene caused by administration of chemical substance, Gene No. 6182 ([1]; rat, in vivo): −
- Behavior of gene caused by administration of chemical substance, Gene No. 6303 ([1]; rat, in vivo): −
- Behavior of gene caused by administration of chemical substance, Gene No. 6620 ([1]; rat, in vivo): −
- Behavior of gene caused by administration of chemical substance, Gene No. 6742 ([1]; rat, in vivo): −
- Liver carcinogenicity (liver): Cr−
- Carcinogenicity (rodent): C−
